Results published in the NIST ThermoML archive (doi:10.1021/acs.jced.8b00979).

Assay: xn = mol fraction of the nth substance listed
Conditions: 100 kPa, Liquid; for viscosity: Capillary tube (Ostwald / Ubbelohde) method; for mass density: Vibrating tube method

CCC(C)CO (stereo not given) [2-methyl-1-butanol] + CCCCCO
Conditions | mass density [kg/m3] | viscosity [mPa·s]
288.15 K, x2 = 0 | 823.35 | 6.439
288.15 K, x2 = 0.1 | 822.86 | 6.245
288.15 K, x2 = 0.2 | 822.37 | 6.036
288.15 K, x2 = 0.3 | 821.88 | 5.819
288.15 K, x2 = 0.399 | 821.4 | 5.595
288.15 K, x2 = 0.5 | 820.92 | 5.361
288.15 K, x2 = 0.6 | 820.44 | 5.128
288.15 K, x2 = 0.699 | 819.96 | 4.916
288.15 K, x2 = 0.799 | 819.5 | 4.741
288.15 K, x2 = 0.899 | 819.03 | 4.697
293.15 K, x2 = 0 | 819.64 | 5.3
293.15 K, x2 = 0.1 | 819.15 | 5.146
293.15 K, x2 = 0.2 | 818.66 | 4.998
293.15 K, x2 = 0.3 | 818.19 | 4.837
293.15 K, x2 = 0.399 | 817.71 | 4.677
293.15 K, x2 = 0.5 | 817.24 | 4.516
293.15 K, x2 = 0.6 | 816.77 | 4.362
293.15 K, x2 = 0.699 | 816.3 | 4.196
293.15 K, x2 = 0.799 | 815.84 | 4.062
293.15 K, x2 = 0.899 | 815.38 | 4.046
298.15 K, x2 = 0 | 815.85 | 4.501
298.15 K, x2 = 0.1 | 815.37 | 4.383
298.15 K, x2 = 0.2 | 814.9 | 4.255
298.15 K, x2 = 0.3 | 814.43 | 4.129
298.15 K, x2 = 0.399 | 813.97 | 3.988
298.15 K, x2 = 0.5 | 813.51 | 3.848
298.15 K, x2 = 0.6 | 813.05 | 3.72
298.15 K, x2 = 0.699 | 812.6 | 3.604
298.15 K, x2 = 0.799 | 812.15 | 3.507
298.15 K, x2 = 0.899 | 811.7 | 3.489
303.15 K, x2 = 0 | 812.12 | 3.825
303.15 K, x2 = 0.1 | 811.64 | 3.725
303.15 K, x2 = 0.2 | 811.17 | 3.63
303.15 K, x2 = 0.3 | 810.71 | 3.518
303.15 K, x2 = 0.399 | 810.26 | 3.402
303.15 K, x2 = 0.5 | 809.8 | 3.287
303.15 K, x2 = 0.6 | 809.34 | 3.197
303.15 K, x2 = 0.699 | 808.89 | 3.114
303.15 K, x2 = 0.799 | 808.45 | 3.051
303.15 K, x2 = 0.899 | 808 | 3.018
308.15 K, x2 = 0 | 808.29 | 3.265
308.15 K, x2 = 0.1 | 807.82 | 3.176
308.15 K, x2 = 0.2 | 807.36 | 3.099
308.15 K, x2 = 0.3 | 806.92 | 3.007
308.15 K, x2 = 0.399 | 806.47 | 2.921
308.15 K, x2 = 0.5 | 806.03 | 2.831
308.15 K, x2 = 0.6 | 805.58 | 2.765
308.15 K, x2 = 0.699 | 805.15 | 2.701
308.15 K, x2 = 0.799 | 804.71 | 2.66
308.15 K, x2 = 0.899 | 804.28 | 2.648
313.15 K, x2 = 0 | 804.41 | 2.783
313.15 K, x2 = 0.1 | 803.95 | 2.717
313.15 K, x2 = 0.2 | 803.51 | 2.657
313.15 K, x2 = 0.3 | 803.07 | 2.59
313.15 K, x2 = 0.399 | 802.64 | 2.528
313.15 K, x2 = 0.5 | 802.21 | 2.468
313.15 K, x2 = 0.6 | 801.78 | 2.419
313.15 K, x2 = 0.699 | 801.35 | 2.365
313.15 K, x2 = 0.799 | 800.93 | 2.327
313.15 K, x2 = 0.899 | 800.51 | 2.323
318.15 K, x2 = 0 | 800.47 | 2.379
318.15 K, x2 = 0.1 | 800.02 | 2.329
318.15 K, x2 = 0.2 | 799.6 | 2.281
318.15 K, x2 = 0.3 | 799.18 | 2.232
318.15 K, x2 = 0.399 | 798.76 | 2.187
318.15 K, x2 = 0.5 | 798.34 | 2.141
318.15 K, x2 = 0.6 | 797.93 | 2.103
318.15 K, x2 = 0.699 | 797.52 | 2.07
318.15 K, x2 = 0.799 | 797.11 | 2.041
318.15 K, x2 = 0.899 | 796.7 | 2.028
323.15 K, x2 = 0 | 796.47 | 2.06
323.15 K, x2 = 0.1 | 796.04 | 2.016
323.15 K, x2 = 0.2 | 795.63 | 1.98
323.15 K, x2 = 0.3 | 795.22 | 1.942
323.15 K, x2 = 0.399 | 794.82 | 1.908
323.15 K, x2 = 0.5 | 794.42 | 1.877
323.15 K, x2 = 0.6 | 794.02 | 1.85
323.15 K, x2 = 0.699 | 793.63 | 1.823
323.15 K, x2 = 0.799 | 793.24 | 1.801
323.15 K, x2 = 0.899 | 792.85 | 1.791
328.15 K, x2 = 0 | 792.41 | 1.787
328.15 K, x2 = 0.1 | 792 | 1.753
328.15 K, x2 = 0.2 | 791.6 | 1.725
328.15 K, x2 = 0.3 | 791.22 | 1.697
328.15 K, x2 = 0.399 | 790.84 | 1.669
328.15 K, x2 = 0.5 | 790.46 | 1.645
328.15 K, x2 = 0.6 | 790.08 | 1.624
328.15 K, x2 = 0.699 | 789.7 | 1.609
328.15 K, x2 = 0.799 | 789.33 | 1.598
328.15 K, x2 = 0.899 | 788.96 | 1.594
